Entries after “also recorded” stand apart in the source; their conditions may differ.
Legend:
[1] = system: RA-differentiated SH-SY5Y cells; test: Cytoprotection against MPP+-induced cytotoxicity; format: cell-based; conditions: MPP+ 0.5 mM, compounds 0.3, 1, 3 μM, BDNF 1, 10, 100 ng/mL, 72 h + 72 h
Procedure: To differentiate SH-SY5Y, cells were seeded in a cell culture flask at a density of 10,000 cells/cm^2 in standard growth medium containing 10 μM retinoic acid (RA; MilliporeSigma) and cultured for 7 consecutive days. Then, differentiated cells were harvested by trypsinization (Trypsin-EDTA 1×, 3 min at 37 °C), centrifuged (250× g; 5 min at 25 °C) and counted. The desired experiment cells were seeded in differentiation medium (MEM:Ham’s F12 growth medium +10 μM RA) in multi-well plates at the following densities: 1,000,000 cells/well on a 6-well plate for lysate collection and immunoblot analysis, and 12,000 cells/well into a PDL-treated 96-well plate (BioCoat™, Corning Inc.) for neuroprotection experiments.
The experiment design was adopted from the article published by Presgraves et al., (2004), with the following modifications. Differentiated SH-SY5Y were prepared as described in Section 4.3.1. On the day of the experiment (Day 0), culture medium containing 10 μM RA was changed for treatment medium composed of MEM:HAM’S F12 (1:1 v/v), 1 × Antibiotic-Antimycotic, and 1 × MEM Non-Essential Amino Acids, with the FBS reduced to 0.5%. In this step, RealTime-Glo™ reagents (Promega, Madison, WI, USA) were added to the treatment medium (to a final concentration of 0.5 × ). Cell viability was measured after 1 h of incubation at 37 °C using a luminometer (VICTOR Light 1420-060) for normalization. Then, the tested compounds and BDNF were diluted in culturing medium as 2 × concentrate (final concentrations of 0.3, 1, and 3 μM for the small molecular compounds and 1, 10, and 100 ng/mL for BDNF) and added into wells for 72 h of incubation (volume, 100 μL/well). Then (Day 3), the treatment medium was replaced with fresh medium containing 0.5 × RealTime-Glo™ reagents (volume, 100 μL/well), and the cell viability was measured for normalization. Then, compounds and BDNF were added as 4 × concentrates (volume, 50 μL/well). In addition, MPP^+ was also diluted in treatment medium and added to the wells as a 4 × concentrate (final concentration, 0.5 mM; volume, 50 μL/well). The cells were incubated for a further 72 h at 37 °C. On Day 6, the cell viability was measured 1 h after replacing the medium with the medium containing 0.5 × RealTime-Glo™ (volume 100 μL/well). The experiments were performed with three biological independent replicates, and the final cell viability (endpoint, Day 6) was normalized to the normalized cell viability calculated on Day 3.

[2] = system: TrkB and downstream proteins (PLCγ1, Akt1, ERK1/2); test: Downstream signaling immunoblot, SN56 T48 cell line; format: cell-based; conditions: for Phosphorylation of TrkB and downstream proteins (PLCγ1, Akt1, ERK1/2): compounds up to 100 μM, BDNF up to 100 ng/mL, 15 min
Procedure: The SN56 T48 cell line with stable overexpression of the TrkB receptor was purchased from Emory University (Atlanta, GA, USA) and cultivated according to the protocol described in Jang et al., 2010 [12]. The cell lines were cultivated with the following reagents: DMEM High Glucose, fetal bovine serum (FBS), Penicillin-Streptomycin Solution 100×, and Trypsin-EDTA 1×; all were purchased from Biowest, and G418 was from ThermoFisher Scientific. For the ELFI experiments, cells were seeded (8000/well) on a PDL-treated 96-well plate (BioCoat™, Corning Inc., Corning, NY, USA) and 6-well plate (400,000/well) for lysate collection and immunoblot analysis.
On the day of the experiments, cells were starved for 5 h with appropriate culture medium. SN56 T48 cells were treated with reference compounds at 100 μM or 1, 10, or 100 μM concentrations of the selected molecules, and 1, 10, and 100 ng/mL of BDNF. Differentiated SH-SY5Y cells were treated with 1, 10, or 100 μM concentrations of the tested molecules and 1, 10, and 100 ng/mL of BDNF for 15 min. For compound specificity, the evaluation cell lines were first pretreated with 1 μM K252a (MilliporeSigma, Saint Louis, MO, USA) for 15 min and then cotreated with 100 μM concentrations of the tested molecules.
Compound treatment was stopped by lysing cells with N-PER™ Neuronal Protein Extraction Reagent (Thermo Fisher Scientific) containing 1 × PhosSTOP™ (Roche, Basel, Switzerland), 1 × Halt Protease Inhibitor Single-Use Cocktail (ThermoFisher Scientific) and 5 mM EDTA. The lysates were collected by scraping, and centrifuged (8000× g; 10 min at 4 °C), and the protein concentration was determined using a BCA Pierce kit (ThermoFisher Scientific). The lysates were stored at −80 °C until further processing. Samples containing 20 μg of protein were further denatured in 4 × Laemli Buffer with 5% β-mercaptoethanol at 95 °C for 5 min and electrophoresed on gels prepared using a 10% TGX Stain-Free™ FastCast™ Acrylamide Kit (Bio-Rad). Afterwards, the proteins were transferred (wet transfer, 100 V, 60 min) onto nitrocellulose membranes (GE Healthcare, Chicago, IL, USA), which were blocked in 5% BSA in TBS-T (TBS + 0.1% Tween20) for 2 h. […] After repeated washes (TBS-T), the proteins were detected with HRP-conjugated anti-rabbit antibodies (1:4000, RT, 2 h) (Cell Signaling Technology), and the blots were incubated with Clarity Max ECL Western Blotting Substrate (Bio-Rad). Blot images and chemiluminescence signals were captured using a ChemiDoc MP Imaging System, and densitometry values were calculated using the Image Lab software (Bio-Rad). […]

| Molecule | Cytoprotective effect (cell viability) [1] | Phosphorylation of TrkB and downstream proteins (PLCγ1, Akt1, ERK1/2) [2] | Cytoprotective effect (cell viability) ([1]; listed as CPL503051) | Activation of downstream proteins (Akt1 and ERK1/2) after inhibition of TrkB kinase by K252a ([2]; K252a 1 μM 15 min before 100 μM compound) |
| --- | --- | --- | --- | --- |
| O=c1cc(-c2ccccc2)oc2c(O)c(O)ccc12 [7,8-DHF, 7,8-dihydroxyflavone] | not able to protect; also recorded: not able to confirm any cytoprotective action | did not induce; also recorded: lack of 7,8-DHF activity | – | – |
| O=C1C(O)=C(c2c[nH]c3ccccc23)C(=O)C(O)=C1c1c[nH]c2ccccc12 [CPL503052, didemethylasterriquinone D] | no cytoprotective properties | demonstrated the activation of the TrkB receptor and phosphorylation of relevant downstream proteins | did not demonstrate any cytoprotective effect | did not repress |
| C=CC(C)(C)c1[nH]c2ccccc2c1C1=C(O)C(=O)C(c2c[nH]c3c(CC=C(C)C)cccc23)=C(O)C1=O [DMAQ-B1] | did not demonstrate any cytoprotective effect | – | – | – |
| BDNF: Brain-derived neurotrophic factor, endogenous TrkB receptor agonist (protein, UniProt P23560 19-247, looked up) Neurotrophic factor BDNF …: APMKEANIRGQGGLAYPGVRTHGTLESVNGPKAGSRGLTSLADTFEHVIEELLDEDQKVRPNEENNKDADLYTSRVMLSSQVPLEPPLLFLLEEYKNYLDAANMSMRVRRHSDPARRGELSVCDSISEWVTAADKKTAVDMSGGTVTVLEKVPVSKGQLKQYFYETKCNPMGYTKEGCRGIDKRHWNSQCRTTQSYVRALTMDSKKRIGWRFIRIDTSCVCTLTIKRGR | dose-dependent cytoprotective effect | significantly increased phosphorylation | – | – |

From paper PMC8398766, “Do Small Molecules Activate the TrkB Receptor in the Same Manner as BDNF? Limitations of Published TrkB Low Molecular Agonists and Screening for Novel TrkB Orthosteric Agonists” (Pharmaceuticals, 2021)
